Assay results: PMC12649549, “Sequence Permutation Generated Lysine and Tryptophan-Rich Antimicrobial Peptides with Enhanced Therapeutic Index” (Antibiotics, 2025)

Legend:
[1] = tested on: HaCaT cells; test: Cell migration assay (in vitro wound healing assay); assay type: cell-based, human; details: 24 h
Protocol: Figure 3 Cell migration rate (In Vitro wound healing rate) of HaCaT cells induced by the designed peptides. […] (Bar: 200 μm) Results are presented as means ± standard deviations (SD); n = 3 (three independent experiments), ns = no significant differences; ** p < 0.01; *** p < 0.001; **** p < 0.0001 compared with PBS (Negative Control) and 100 ng/mL EGF (Positive Control).
For the Cell Migration Assay (in vitro wound healing assay), HaCaT cells (4 × 10^4 cells) were seeded on each side of an ibidi culture insert (ibidi, Germany) in DMEM medium supplemented with 10% fetal bovine serum. The inserts were placed into a 24-well plate and incubated at 37 °C and 5% CO2 overnight. After removing the inserts, 1 mL of serum-free DMEM medium supplemented with different concentrations of peptide was added. Medium without peptide and with 100 ng/mL EGF (epidermal growth factor) were used as negative and positive controls, respectively. The migration area was imaged at 0 and 24 h using an inverted fluorescent microscope (Zeiss/Observer Z1) at 10× magnification, and the area was quantified using ImageJ software(version 1.54g). The repairing rate was calculated using the formula: Repairing Rate = (Area0h-Area24h)/Area0h, where 0 h and 24 h represent the time points at which the images were taken.

[2] = tested on: human red blood cells (hRBCs); test: Hemolytic activity assay; assay type: cell-based; details: 1 h; for lysis of RBCs (hemolysis): 200 μM peptide, 100% = 1% Triton X-100
Protocol: Equal volumes of peptides and hRBCs were mixed and incubated at 37 °C for 1 h. The supernatant was collected from the samples and tested for absorbance at 565 nm. Zero hemolysis (blank) was defined in PBS buffer, while 100% hemolysis was defined in 1% Triton X-100.
Hemolytic activity was evaluated by testing the ability of the peptides to cause lysis of human red blood cells (hRBCs), both in the presence and absence of the antimicrobial peptide. Blood samples were collected from healthy volunteers and treated with ethylenediaminetetraacetic acid (EDTA) to prevent coagulation. The hRBCs were then washed three times with phosphate-buffered saline (PBS) and pelleted by centrifugation at 800× g for 10 min. Next, the hRBCs were diluted in PBS to a final concentration of 10%. Peptides were serially diluted in PBS ranging from 400 µM to 3.13 µM, and an equal volume of 10% hRBC was added to each dilution. After incubation at 37 °C for 1 h, the supernatant was collected by centrifugation at 800× g for 10 min, and the absorbance at 565 nm was measured. Negative controls (PBS blank) and positive controls (1% Triton X-100 in PBS) were also included. The percentage of hemolysis was calculated using the following formula: %hemolysis = [(Asample − APBS)/(ATritonX-100 − APBS)] × 100%, where A is the absorbance under the specified conditions.

[3] = Calcein dye leakage assay, POPC:LPS LUVs; details: POPC:LPS (12.5:1) LUVs, final peptide concentration 2 μg/mL; n = 3
Protocol: (§1) Large unilamellar vesicles (LUVs) containing POPC:LPS (12.5:1, mol/mol) and POPC:cholesterol (2:1, mol/mol) were prepared using the extrusion method and an Avanti small-volume extrusion apparatus(Avanti Polar Lipids). To prepare the vesicles, phospholipids were dissolved in a chloroform/methanol mixture (4:1, v/v), evaporated using nitrogen gas, and suspended in PBS buffer. The lipid suspensions underwent six to eight cycles of freezing and thawing before being extruded ten times through a […] pore size polycarbonate filter, followed by ten times through a […] filter. Calcein-filled LUVs were also prepared by loading calcein-containing buffer (70 mM calcein and 10 mM Tris at pH 7.4) into a Sephadex G-75 column loaded with iso-osmotic buffer (100 mM sodium chloride and 10 mM Tris) to remove unencapsulated calcein. The phospholipid content of the vesicles was determined by assessing inorganic phosphate using the ammonium ferrothiocyanate method described by John Charles Marshall Stewart.
(§2) Calcein leakage induced by peptides was measured using a Perkin-Elmer luminescence spectrofluorimeter with excitation and emission wavelengths of 496 and 515 nm, respectively. Calcein-entrapped LUVs were diluted to a concentration of 10 µM. The maximum degree of leakage was induced by 100 mg/mL Triton X-100.
(§3) The degree of leakage induced by various peptide concentrations was calculated using the formula: Leakage % = ((F − F0)/(Fr − F0)) × 100%, where F0 and Fr represent the initial fluorescence intensities observed without peptide and after adding 100 mg/mL Triton X-100, respectively.

[4] = Calcein dye leakage assay, POPC:Cholesterol LUVs; details: POPC:Cholesterol (2:1) LUVs, final peptide concentration 2 μg/mL; n = 3
Protocol: as §1, §2, §3

[5] = hRBCs in PBS, 37 °C, absorbance 565 nm
[6] = hRBCs in PBS, 37 °C, absorbance 565 nm, 108.7 µg/mL(200 µM) used when no detectable hemolytic activity

| Substance | wound healing effect (cell migration rate) ([1]; 4 µg/mL peptide) | lysis of RBCs (hemolysis) [2, 5] | calcein leakage [3] | wound healing effect (cell migration rate) ([1]; serum-free DMEM, 0.25 µg/mL to 4 µg/mL, compared to the negative control) | HC10 (concentration that induced 10% hemolysis of human red blood cells) ([2]; phosphate buffer) | calcein leakage [4] | HC10 (concentration that induced 10% hemolysis of human red blood cells) [2, 6] |
| --- | --- | --- | --- | --- | --- | --- | --- |
| Ac-AKKKKWRKWLKWL-NH2 [Peptide W5K10] | comparable wound healing effects | less than 10% | 81% |  |  |  |  |
| Ac-KKKKWRKWLKWLA-NH2 [Peptide W5K11] | comparable wound healing effects | ~27% | 85% | superior wound healing effect even at the lowest concentration of 0.25 µg/mL | 71.0 µg/mL | above 60% |  |
| Ac-KKKWRKWLKWLAK-NH2 [Peptide W5K12] |  | ~30% | 82% |  |  | above 60% | 41.7 µg/mL |
| Ac-KKWRKWLKWLAKK-NH2 [W5K/A9W] | comparable wound healing effects | approximately 35% | 82% |  |  | above 60% | 30.0 µg/mL |
| Ac-KWRKWLKWLAKKK-NH2 [Peptide W5K01] |  | ~25% | 74% |  |  | above 60% | 70.9 µg/mL |
| Ac-WLKWLAKKKKWRK-NH2 [Peptide W5K05] |  |  | 69% |  |  |  |  |
| Ac-WRKWLKWLAKKKK-NH2 [Peptide W5K02] |  | ~34% | 78% |  |  | above 60% | 16.7 µg/mL |
